In US11092602B2, “Methods and compositions relating to proteasome inhibitor resistance” (Whitehead Institute for Biomedical Research, priority 2015, dated 2021):
Entries after “also recorded” stand apart in the source; their conditions may differ. Residues, ends and D or L forms follow the SMILES beside them. *: point of attachment. Cbz = O=C(OCc1ccccc1)*

Legend:
IMR32 and Kelly cells [1] = experiment: CellTiter-Glo viability of IMR32 and Kelly neuroblastoma cells; format: cell-based; settings: 72 hours
T47D cells [2] = experiment: Selleck anti-cancer compound library screen, PSMD2 KD versus control T47D cells (resazurin); format: cell-based, human; settings: 4 concentrations, 72 hours
Description: After 48 hours the cells were collected, counted, and plated at 1000 cells/well in 384 well plates in duplicates for each cell line. Compounds from the Selleck Chemicals anti-cancer compound library β49 drugs in 4 concentrations; […]) were pinned the next day and viability was measured after 72 hours by the reduction of Resazurin (Ex=530 nm, Em=590 nm).
The effect of each drug on viability of cells was calculated by averaging the duplicate experiments. The data is plotted in FIG. 16 as the log2 of the ratio of viability of PSMD2 KD versus control cells (log2 (shPSMD2/Control)).

IMR32 and Kelly cells [3] = experiment: CellTiter-Glo viability of IMR32 and Kelly neuroblastoma cells; format: cell-based; settings: 72 hours; remark: listed apart in the source
Description: IMR32 and Kelly cells were each cultured in the presence of bortezomib at concentrations ranging from 0.001 um to 0.100 um. […] The fold viability relative to culture in the absence of bortezomib was determined for each cell line.
The fold viability relative to culture in the absence of the compound was determined for each cell line.

T47D cells [4] = experiment: CellTiter-Glo viability of PSMD2 KD versus control T47D cells with BCL2 family inhibitors; format: cell-based, human
Description: Cell viability was measured by CellTiter-Glo® Luminescent Cell Viability Assay 72 hours after addition of the compounds to cells.

T47D cells [5] = experiment: Cell viability of T47D cells with doxycycline-inducible PSMD2 shRNA; format: cell-based, human; settings: for resistance of cells harboring the PSMD2 shRNA versus parental line (EC50): doxycycline 3 days, 96 hour culture
Description: T47D cells harboring a doxycycline inducible control shRNA (GFP) or a doxycycline-inducible PSMD2 shRNA (TurboRFP) were incubated with doxycycline for 3 days. Cells were then split and grown in the absence of Dox and proteasome inhibitors were then added at various concentrations. Cells were maintained in culture and then counted.
For the generation of the T47D Tet-inducible PSMD2 knockdown cell line—the TRIPZ vector with an inducible shRNA targeting PSMD2 was purchased from Dharmacon (clone V3THS_403760). It was introduced to the T47D cells according to manufactures protocol and cells were selected with puromycin 1 μg/ml for one week. The cells were exposed to doxycycline for 24 hours and cells were FACS sorted for the top 10% of most RFP expressing cells (highest expression of shRNA). The cells were further cultured in the absence of doxycycline and PSMD2 knockdown was induced as specified in the relevant Examples.
Relative cell growth and survival were measured in 96-well microplate format in the shRNA experiments and in 384 well format in the drug toxicity assays, by using the fluorescent detection of resazurin dye reduction as an endpoint (544 nm excitation and 590 nm emission). 2,500 cells in 96 wells format or 1,000 cells in 384 well format were plated 24 hours before compound exposure (for 72 hours or indicated time). Each analysis was performed at least with three replicas.

Saccharomyces cerevisiae = experiment: Yeast DAmP strains MG132 sensitivity assay; format: cell-based; settings: 50 μM MG132, 48 hours
Excerpt: Additionally, because the essential role of the proteasome in maintaining protein homeostasis is conserved across all eukaryotes (Hilt and Wolf, 1995), we asked whether reducing expression of 19S subunits confers resistance to proteasome inhibitors in an evolutionary distant organism—the yeast Saccharomyces cerevisiae. As the 19S regulatory complex components are essential for viability in yeast, we utilized a library of hypomorphic (DAmP) alleles for essential yeast genes. In this library, the expression of individual mRNA species is reduced from two to ten-fold by replacing the mRNA's 3′ untranslated region (Breslow et al., 2008).
Yeast cells were grown over night in media containing L-proline as nitrogen source instead of ammonium sulfate. […] OD was measured over the period of 48 hours.

T47D cells [6] = experiment: Competition co-culture of shPSMD2-RFP and shControl-GFP T47D cells, FACS and microscopy; format: cell-based, human; settings: 1:10 plating ratio; concentration-dependent
Description: We created two cell lines—one line that expresses red fluorescent protein (turboRFP) and the doxycycline-inducible PSMD2-targeting shRNA and another line that expresses green fluorescent protein (GFP) and a doxycycline-inducible control shRNA (FIG. 6A). First, we induced shRNA expression with doxycycline for 48 hours. After recovery, we mixed shPSMD2-RFP and shControl-GFP cells at different ratios (either 1:1, 1:2, 1:5 or 1:10), adding the cells with reduced PSMD2 as the minority subpopulation. Twenty-four hours after plating, we treated these mixed populations of cells for 48 hours with increasing concentrations of bortezomib (5, 7.5 or 10 nM). We allowed the cells to recover in the absence of bortezomib and then we quantified the red and green cells by FACS analysis (FIG. 6A) and captured representative images by fluorescence microscopy (FIG. 6B).
The experiment described in Example 10 was repeated with minor differences using a panel of different proteasome inhibitors: MLN2238, MLN9708, and oprozomib T47D cells harboring a doxycycline inducible control shRNA (GFP) or a doxycycline-inducible PSMD2 shRNA (TurboRFP) were incubated with doxycycline for 3 days. Cells were collected, counted, and plated at a 1:10 ratio of TurboRFP-expressing PSMD2 shRNA cells/GFP expression control shRNA cells in the absence of Dox. Proteasome inhibitors were added at the specified concentrations and cells were maintained in culture. Cells were allowed to recover in the absence of the proteasome inhibitor and then analyzed by FACS (FIG. 8B, top) or visualized by microscopy (FIG. 8B, bottom). In the absence of proteasome inhibitors, the initial plating ratio of these cells (1:10) was maintained over the duration of the experiment (FIG. 8B). […] The effect was concentration-dependent in that higher concentrations elicited more substantial shifts.
cells were trypsinized in 100 μL Accumax® solution and further diluted into 100 μl PBSx1. The number of cells with red or green fluorescent proteins was measured by MACSQuant® VYB according to manufactures protocol. Images of RFP and GFP were created by overlaying images using Fiji software.

Compound | selective effect on viability, PSMD2 KD versus control cells (log2 (shPSMD2/Control)) (T47D cells [2]) | sensitivity of IMR32 cells versus Kelly cells (IMR32 and Kelly cells [3]) | shift of surviving cell populations towards PSMD2 shRNA cells (T47D cells [6]) | resistance of cells harboring the PSMD2 shRNA versus parental line (EC50) (T47D cells [5]) | also measured
CC1(C)CCC(c2ccc(Cl)cc2)=C(CN2CCN(c3ccc(C(=O)NS(=O)(=O)c4ccc(N[C@H](CCN5CCOCC5)CSc5ccccc5)c(S(=O)(=O)C(F)(F)F)c4)cc3)CC2)C1 [ABT-263, navitoclax] | selectively inhibits growth of T47D cancer cells that have a reduced level of PSMD2; also recorded: selectively reduce the viability of PSMD2 KD cells versus control cells | dramatically more sensitive; also recorded: significantly more sensitive | – | – | preferential sensitivity of IMR32 versus Kelly cells, compared between BCL2 family inhibitors (IMR32 and Kelly cells [1]): much greater; sensitivity after reintroduction of the PSMD5 subunit (IMR32 and Kelly cells [1]; IMR32 cells): did not significantly alter; sensitivity of PSMD2 KD cells versus control cells (T47D cells [4]; 72 hours): more sensitive; sensitization by suppression of 19S subunit PSMD2 (T47D cells [4]; doxycycline-induced): not sufficient, however, to induce a profound sensitization
COc1ccc(-c2ccc3c(N4CCOCC4)nc(N4C[C@@H](C)O[C@@H](C)C4)nc3n2)cc1CO [Ku-0063794] | selectively inhibit growth of T47D cancer cells that have a reduced level of PSMD2; also recorded: selectively reduce the viability of PSMD2 KD cells versus control cells | – | – | – | –
CC(C)C[C@@H](C=O)NC(=O)[C@H](CC(C)C)NC(=O)[C@H](CC(C)C)NC(=O)OCc1ccccc1 [MG132, N-(benzyloxycarbonyl)leucinylleucinylleucinal] (Cbz-Leu-Leu-Leu-aldehyde) | – | – | – | – | resistance upon doxycycline-induced reduction of PSMD2 (T47D cells [5]; PSMD2 shRNA versus control): significantly increased resistance; resistance of 19S subunit DAmP strains to proteasome inhibition (Saccharomyces cerevisiae): five of these twelve strains had significantly increased resistance
CC(C)C[C@H](NC(=O)CNC(=O)c1cc(Cl)ccc1Cl)B(O)O [MLN2238, ixazomib] | selectively reduce viability of control cells versus PSMD2 KD cells | – | substantially shifted the populations of surviving cells | – | –
CC(C)C[C@H](NC(=O)[C@H](CCc1ccccc1)NC(=O)CN1CCOCC1)C(=O)N[C@@H](Cc1ccccc1)C(=O)N[C@@H](CC(C)C)C(=O)[C@@]1(C)CO1 [carfilzomib] | – | – | – | considerably more resistant | –
Nc1nc(Cl)nc2c1ncn2[C@H]1C[C@H](O)[C@@H](CO)O1 [cladribine, 2-chlorodeoxyadenosine] | selectively inhibit growth of T47D cancer cells that have a reduced level of PSMD2; also recorded: selectively reduce the viability of PSMD2 KD cells versus control cells | – | – | – | –
CCN(CC)C(=S)SSC(=S)N(CC)CC [disulfiram, tetraethylthiuram disulfide] | selectively inhibit growth of T47D cancer cells that have a reduced level of PSMD2; also recorded: selectively reduce the viability of PSMD2 KD cells versus control cells | dramatically more sensitive | – | – | –
CN(NC(=O)CC(=O)NN(C)C(=S)c1ccccc1)C(=S)c1ccccc1 [elesclomol] | selectively inhibit growth of T47D cancer cells that have a reduced level of PSMD2; also recorded: selectively reduce the viability of PSMD2 KD cells versus control cells | dramatically more sensitive | – | – | –
COC[C@H](NC(=O)c1cnc(C)s1)C(=O)N[C@@H](COC)C(=O)N[C@@H](Cc1ccccc1)C(=O)[C@@]1(C)CO1 [oprozomib] | – | – | substantially shifted the populations of surviving cells | considerably more resistant | –
ixazomib citrate [MLN9708] | selectively reduce viability of control cells versus PSMD2 KD cells | – | substantially shifted the populations of surviving cells | considerably more resistant | –
